Data published in publication PMC3736441 (Marine Drugs, 2013).

Legend:
[1] = target: α-acetylcholinesterase (AChE) (Homo sapiens, UniProt P22303); test: biochemical; assay type: biochemical; conditions: phosphate buffer pH 7.0, 37 °C, triplicate; for IC50: read-out: Inhibition of AChE IC50; as to all read-outs here: key: '-' as 'no action'
Protocol: α-Acetylcholinesterase inhibitory activity was assayed using 50 mM phosphate buffer (pH 7.0). […] 10 μL of sample solution and 10 μL of α-acetylcholinesterase solution (2 units mL^−1, in the phosphate buffer at pH 7.0) were added to 960 μL of phosphate buffer and incubated at 37 °C for 30 min, and then 20 μL of substrate were added to initiate the enzyme reaction. The enzyme reaction was carried out at 37 °C for 30 min. Product was monitored spectrophotometrically by measuring the absorbance (λ = 400 nm). Huperzine A was used as reference standard inhibitor for comparison. Dose-response curves were obtained by performing assays in the presence of increasing concentrations of inhibitors. IC50 value was determined by interpolation of the dose-response curves. For all tests, the inhibition assays were performed in triplicate.

[2] = system: human breast cancer cells (MCF-7); test: in vitro; conditions: MCF-7 cells, MTT
Protocol: (§1) IC50 of these compounds were determined by the MTT assay (see Table 2).
(§2) The cytotoxic activities were determined using MCF-7, A549, Hela, KB human tumor cells by the MTT colorimetric method. […] Subsequently 20 μL of MTT solution (5 mg/mL) were added to each well and mixed, the cells were then incubated for an additional 4 h. Culture supernatant were removed, 150 μL of DMSO were added to each well to fully dissolve the MTT—formazan crystals. Cell growth inhibition was determined by measuring the absorbance (Abs) at λ = 570 nm using a microplate reader and calculated according to the following equation: Growth inhibition = (1 − OD of treated cells/OD of control cells) × 100% (1)
(§3) The half maximal inhibitory concentrations (IC50) were obtained from linear regression analysis of the concentration-response curves plotted for each tested compound (Bliss’s software). Results were expressed as the mean value of triplicate data points.

[3] = system: cervix carcinoma cells (Hela); test: in vitro; conditions: Hela cells, MTT
Protocol: as §1, §2, §3

lung cancer cells (A549) = conditions: MTT
Protocol: as §1, §2, §3

[4] = system: human nasopharyngeal carcinoma cells (KB); conditions: MTT
Protocol: as §1, §2, §3

in vitro = conditions: human
Protocol: as §1, §2, §3

α-acetylcholinesterase (AChE), sequence (P22303 32-614): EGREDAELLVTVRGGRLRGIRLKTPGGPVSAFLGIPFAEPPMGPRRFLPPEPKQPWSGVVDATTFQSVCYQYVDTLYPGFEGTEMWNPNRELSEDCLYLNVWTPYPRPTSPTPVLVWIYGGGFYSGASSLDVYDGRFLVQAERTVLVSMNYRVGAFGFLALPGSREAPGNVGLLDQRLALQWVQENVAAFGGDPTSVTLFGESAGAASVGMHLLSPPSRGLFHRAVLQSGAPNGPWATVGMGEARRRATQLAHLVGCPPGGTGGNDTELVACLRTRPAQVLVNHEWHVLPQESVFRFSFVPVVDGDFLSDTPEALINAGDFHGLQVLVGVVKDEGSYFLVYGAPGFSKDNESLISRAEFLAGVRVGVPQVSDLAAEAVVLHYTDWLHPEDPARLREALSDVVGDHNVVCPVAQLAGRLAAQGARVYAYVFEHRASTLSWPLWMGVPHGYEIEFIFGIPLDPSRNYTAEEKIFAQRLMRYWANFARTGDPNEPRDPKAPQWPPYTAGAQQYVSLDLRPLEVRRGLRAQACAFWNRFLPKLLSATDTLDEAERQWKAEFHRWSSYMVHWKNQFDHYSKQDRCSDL

| Compound | Inhibition of AChE IC50 [1] | Cytotoxicity IC50 MCF-7 [2] | cytotoxic / inhibitory activity against MCF-7 (in words) [2] | Cytotoxicity IC50 Hela [3] | cytotoxic / inhibitory activity against Hela (in words) [3] | Cytotoxicity IC50 A549 (lung cancer cells (A549)) | cytotoxic / inhibitory activity against A549 (in words) (lung cancer cells (A549)) | Cytotoxicity IC50 KB [4] | cytotoxic / inhibitory activity against KB (in words) [4] | IC50 [1] | IC50 (in vitro; Cytotoxicity IC50 Hela, Hela cells, MTT) | IC50 (in vitro; Cytotoxicity IC50 MCF-7, MCF-7 cells, MTT) | IC50 (in vitro; Cytotoxicity IC50 Hela) | IC50 (in vitro; Cytotoxicity IC50 MCF-7) |
| --- | --- | --- | --- | --- | --- | --- | --- | --- | --- | --- | --- | --- | --- | --- |
| CCc1c(OC)cc2c(c1O)C(=O)C[C@H](O)[C@H]2O [Compound 5, botryosphaerone D] | - | - | no inhibitory activities | - | no inhibitory activities | - | no inhibitory activities | - | no inhibitory activities |  |  |  |  |  |
| COC1=CC(=O)c2c(O)c(C)c3c(c2C1=O)O[C@@H](C)C3 [Compound 2, anhydrojavanicin] |  | - | no inhibitory activities | - | no inhibitory activities | - | no inhibitory activities | - | no inhibitory activities | 2.01 µM |  |  |  |  |
| CC(C)[C@@H](C)/C=C/[C@@H](C)[C@H]1CC[C@@]2(O)C3=CC(=O)[C@@]4(O)C[C@@H](O)CC[C@]4(C)[C@H]3CC[C@]12C [Compound 8, 3β,5α,14α-trihydroxy-(22E,24R)-ergosta-7,22-dien-6-one] | - |  | weak inhibitory activities |  | weak inhibitory activities |  | weak inhibitory activities |  | weak inhibitory activities |  | 25.4 µM | 24.4 µM |  |  |
| COc1cc(OC)c2c(c1O)C(=O)c1cc(C)ncc1C2=O [Compound 3, 8-O-methylbostrycoidin] |  | - | no inhibitory activities | - | no inhibitory activities | - | no inhibitory activities | - | no inhibitory activities | 6.71 µM |  |  |  |  |
| CC(C)[C@@H](C)/C=C/[C@@H](C)[C@H]1CC[C@H]2C3=CC(=O)[C@@]4(O)C[C@@H](O)CC[C@]4(C)[C@H]3CC[C@]12C [Compound 7, 3β,5α-dihydroxy-(22E,24R)-ergosta-7,22-dien-6-one] | - |  | strong or moderate cytotoxic activies |  | strong or moderate cytotoxic activies |  | strong or moderate cytotoxic activies |  | strong or moderate cytotoxic activies |  |  |  |  |  |
| COc1cccc2c1C(=O)c1c(O)c3c(c(O)c1C2=O)C[C@@](O)(C(=O)CO)C[C@@H]3O[C@H]1C[C@H](N)[C@@H](O)[C@H](C)O1 [Epirubicin, reference compound] |  |  |  |  |  |  |  |  |  |  |  |  | 1.07 µM | 0.42 µM |
| COc1cc(OC)c2c(c1O)C(=O)C(CC(C)=O)=C(C)C2=O [Compound 4, 8-O-methyljavanicin] | - | - | no inhibitory activities | - | no inhibitory activities | - | no inhibitory activities | - | no inhibitory activities |  |  |  |  |  |
| COc1cc(OC)c2c(c1O)C(=O)c1sc(C(C)O)cc1C2=O (centres unmarked) [Compound 1, 8-hydroxy-2-[1-hydroxyethyl]-5,7-dimethoxynaphtho[2,3-b] thiophene-4,9-dione] | - | - | no inhibitory activities | - | no inhibitory activities | - | no inhibitory activities | - | no inhibitory activities |  |  |  |  |  |
| CC(=O)O[C@H]1C[C@H]2[C@H]3[C@H]([C@@H](O)C[C@]2(C)[C@H]1[C@H](C)/C=C/[C@H](C)C(C)C)[C@@]1(C)CC[C@H](O)C[C@@H]1C(=O)[C@@H]3O [Compound 9, NGA0187] |  | - | no inhibitory activities | - | no inhibitory activities | - | no inhibitory activities | - | no inhibitory activities | 1.89 µM |  |  |  |  |
| CCc1c(OC)cc2c(c1O)C(=O)C(OC)=CC2=O [Compound 6, 6-ethyl-5-hydroxy-3,7-dimethoxynaphthoquinone] | - | - | no inhibitory activities | - | no inhibitory activities | - | no inhibitory activities | - | no inhibitory activities |  |  |  |  |  |
